Key:
Lys-GFP-ER-HoxA9 cells [1] = experiment: Myeloid differentiation assay in Lys-GFP-ER-HoxA9 cells (GFP / CD11b flow cytometry); conditions: for myeloid differentiation: ER-HoxA9 cellular differentiation assay, in words; for effect of uridine supplementation of the media on differentiation: uridine rescue, also U937 and THP1
Method: (See Example 20 for assay details.) After four days of compound treatment, cells were assessed by high-throughput flow cytometry for viability based on forward and side-scatter properties, and for differentiation as determined by the endogenous expression of GFP and cell-surface expression of CD11b (APC fluorescence, FIG. 2C).
The cell line used was ERHoxA9 myeloblast cell line. […] Removal of beta-estradiol from the culture media inactivates ERHoxA9 and the cells are freed from the HoxA9-differentiation arrest and undergo normal myeloid differentiation.
Cells were cultured in RPMI (Cellgro) supplemented with 10% fetal bovine serum (Serum Source Int'l), penicillin/streptomycin, L-glutamine (Omega Scientific), 5% conditioned media containing stem cell factor (SCF), and 0.5 μM beta-estradiol (Sigma). On day 1, 25 μL of complete media supplemented with 0.04% Pluronic F-68 (GIBCO) was added to a sterile 384 well culture plate (Greiner) followed by the addition of 0.2 μL of test compound in DMSO (Sigma). Wells contained complete media supplemented with Pluronic F-68 and the 5 μM of the estrogen receptor antagonist fulvestrant that served as a positive control for differentiation. 25 μL of cells (1.2×10^5/ml) in complete media were added and the plates were incubated (37° C./5% CO2) for 4 days. Final concentrations of components were 3,000 cells/well, 4 μM test compound, and 0.4% DMSO.
On day 5, plates were harvested as follows: 5 μL of an antibody/bead solution consisting of a 1:100 dilution of APC-conjugated anti-mouse CD11b (eBioscience, cloneM1/70) and a 1/500 dilution of polystyrene beads (Spherotech) were added to wells and the plates were incubated for 20 min prior to sampling using the HyperCyt® high throughput flow cytometry platform.
Cells were cultured in RPMI (Cellgro) supplemented with 10% fetal bovine serum (Serum Source Int'l), penicillin/streptomycin, L-glutamine (Omega Scientific), 5% conditioned media containing stem cell factor (SCF), and 0.5 μM beta-estradiol (Sigma, E2758). On day 1, 25 μL of complete media supplemented with 0.04% Pluronic F-68 (GIBCO) was added to a sterile 384 well culture plate (Greiner) followed by the addition of 0.2 μL of compound dilution arrays in DMSO. Some wells contained complete media supplemented with Pluronic F-68 and 5 μM of the estrogen receptor antagonist fulvestrant that served as a positive control for differentiation. 25 μL of cells (1.2×10^5/ml) in complete media were added and the plates were incubated (37° C./5% CO2) for 4 days. Final concentrations of components were 3,000 cells/well and 0.4% DMSO.

[2] = biological target: recombinant human DHODH protein (Homo sapiens, UniProt Q02127); experiment: In vitro DHODH enzyme inhibition assay; format: biochemical; conditions: in words
[3] = system: acute promyelocytic leukemia (APL); conditions: ATRA incorporated into treatment regimens; from 20%; cited from earlier work
U937 cells = experiment: Differentiation (CD11b upregulation) in U937 human leukemia cell line; format: cell-based
Method: (§1) The THP-1 and U937 human leukemic cell lines were used within the same procedure as in the primary assay, except using human leukemic cell lines. These are factor-independent cell lines and estrogen-independent cell lines, such that cells were grown simply in RPMI supplemented with 10% fetal bovine serum.

THP1 cells [4] = experiment: Differentiation (CD11b upregulation) in THP1 human leukemia cell line; format: cell-based
Method: as §1

wild-type C57B1/6 mice [5] = experiment: Maximum tolerated dose (MTD) evaluation; conditions: doses higher than 15 mg/kg, after 6 days of daily dosing; reversible
DHODH activity = experiment: Plasma uridine and dihydroorotate (DHO) after brequinar dosing; format: in vivo, murine
Method: DHODH catalyzes the conversion of dihydroorotate (DHO) to orotate in the endogenous synthesis of uridine monophosphate. Inhibition of DHODH activity results in dihydroorotate accumulation and uridine depletion.
Plasma uridine levels were analyzed at various times thereafter (FIG. 8). […] Patient-specific dosing will be accomplished by adjusting the dose of DHODH inhibitor based on the patient's metabolism. This will involve adjusting the dosage based on the measurement of plasma DHO.

Plasma protein binding = format: in vitro ADME; conditions: consistent with published literature
Method: Plasma protein binding was determined by equilibrium dialysis using the Rapid Equilibrium Dialysis (RED) device (Pierce Biotechnology, Rockford, Ill.) for both human and mouse plasma. Each compound was prepared in duplicate at 5 μM in plasma (0.95% acetonitrile, 0.05% DMSO) and added to one side of the membrane (200 μl) with PBS pH 7.4 added to the other side (350 μl). Compounds were incubated at 37° C. for 5 hours with a 250 rpm orbital shake. After incubation, samples were analyzed by UPLC-MS (Waters, Milford, Mass.) with compounds detected by SIR detection on a single quadrupole mass spectrometer.

THP1 cells [6] = experiment: THP-1 subcutaneous xenograft model of AML; format: in vivo, SCID mice
Excerpt: THP1 cells were implanted subcutaneously into the flank of SCID mice, and allowed 10 days to engraft to tumor size of ˜40 mm^2.

wild-type C57B1/6 mice [7] = conditions: C57B1/6, mouse, in vivo, 6 days
[8] = system: protein O-GlcNAc modification; experiment: Immunoblot of protein O-GlcNAc modification; format: cell-based
Excerpt: FIG. 5E is an immunoblot.
DHODH and OMPD inhibitors lead to depletion of uridine and to myeloid differentiation in model systems. […] (See, Example 24.) Without intending to be bound by theory, part of the differentiation effect may be due to depletion of UDP-GlcNAc leading to decreased O-linked N-acetylglycosylation (GlcNAc) post-translational modification of proteins.

[9] = biological target: panel of >400 known kinases; experiment: DiscoverX KinomeScan kinase panel; format: binding
organ rejection = conditions: in vivo; cited from earlier work
[10] = system: leukemia initiating cells; experiment: Leukemia-initiating cell activity (transplant of FACS-purified leukemia cells into tertiary recipients); format: in vivo, mice
Excerpt: Leukemic cells isolated from the BRQ-treated mice were more differentiated on the basis of their CD11b and Gr-1 cell-surface expression (FIGS. 6C, 6D). To assess their morphology as well as their functional potential as leukemia initiating cells, live Venus-positive leukemic cells were freshly isolated from vehicle or BRQ-treated mice by fluorescence-activated cell sorting (FACS).
FACS-purified leukemia cells from vehicle or BRQ-treated mice were re-introduced into sub-lethally irradiated tertiary recipient mice. The experiment was performed twice: from mice that received BRQ 25 mg/kg every other day for 4 doses (FIG. 7B, left panel), and from mice that received BRQ day 1+4 of a 7-day cycle for a total of 6 doses (FIG. 7B, right panel).

[11] = Brequinar plasma concentration after a single IP dose; conditions: mouse, FIG. 4E, read-out: half-life in vivo (converted)
[12] = system: HoxA9-Meis1 leukemia cells; experiment: Syngeneic HoxA9 and Meis1-driven model of AML
Excerpt: To address the anti-leukemic and differentiation effect of DHODH inhibition in vivo, we chose a syngeneic retroviral transduction model of AML. In this model, bone marrow cells are transduced with MSCV-based retrovirus expressing both HoxA9 and Meis1 oncoproteins and introduced intravenously into recipient mice that have been pre-conditioned with a sub-lethal dose of radiation. Mice that developed acute myeloid leukemia were sacrificed and bone marrow cells were expanded in vitro in media supplemented with SCF and IL-3. To permit easy tracking in vivo, leukemic cells were transduced with lentivirus expressing the Venus fluorescent protein, and double-sorted by fluorescence activated cell sorting (FACS) to purity. These Venus-expressing cultured leukemic cells were re-transplanted into pre-conditioned secondary recipient mice, and these secondary recipients were used in all described experiments. […] Mice were treated at six dosages: (1) vehicle Q2D, (2) BRQ 5 mg/kg Q2D, (3) BRQ 10 mg/kg Q2D, (4) BRQ 25 mg/kg Q2D, (5) vehicle days 1+4 of a 7-day schedule or (6) BRQ 25 mg/kg days 1+4 of a 7-day schedule. Scheduled interim euthanasia and leukemia analyses were performed at two planned time points (FIG. 6A).

Lys-GFP-ER-HoxA9 cells [13] = experiment: Cellular metabolite analysis after DHODH inhibition in vitro; format: cell-based, murine; conditions: 48 hours treatment
Excerpt: DHODH catalyzes the conversion of dihydroorotate (DHO) to orotate in the endogenous synthesis of uridine monophosphate (UMP, FIG. 5A).

Solubility = format: physicochemical
Method: Solubility was determined in phosphate buffered saline (PBS) pH 7.4 with 1% DMSO. Each compound was prepared in duplicate at 100 μM in both 100% DMSO and PBS with 1% DMSO. Compounds were allowed to equilibrate at room temperature with a 250 rpm orbital shake for 24 hours. After equilibration, samples were analyzed by UPLC-MS (Waters, Milford, Mass.) with compounds detected by SIR detection on a single quadrupole mass spectrometer. The DMSO samples were used to create a two point calibration curve to which the response in PBS was fit.

Bioavailability = conditions: in vivo
[14] = 5 mg/kg or 10 mg/kg every other day
[15] = 25 mg/kg day 1+4 of a 7-day schedule
[16] = 25 mg/kg day 1+4 of a 7-day schedule, 6 doses

Chain of recombinant human DHODH protein (Q02127 whole entry): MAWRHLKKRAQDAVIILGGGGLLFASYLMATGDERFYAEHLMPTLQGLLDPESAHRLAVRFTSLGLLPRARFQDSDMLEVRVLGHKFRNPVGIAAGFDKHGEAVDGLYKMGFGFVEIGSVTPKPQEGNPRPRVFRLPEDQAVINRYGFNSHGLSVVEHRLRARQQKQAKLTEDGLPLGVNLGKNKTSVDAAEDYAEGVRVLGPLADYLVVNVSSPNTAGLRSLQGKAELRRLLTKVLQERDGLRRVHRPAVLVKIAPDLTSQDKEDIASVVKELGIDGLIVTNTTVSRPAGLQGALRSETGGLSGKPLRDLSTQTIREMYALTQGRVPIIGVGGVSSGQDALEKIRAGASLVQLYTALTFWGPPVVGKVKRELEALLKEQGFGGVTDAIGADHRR

Question: For NC(=O)c1[nH]nc([C@@H]2O[C@H](CO)[C@@H](O)[C@H]2O)c1O [pyrazofurin], which myeloid differentiation (Lys-GFP-ER-HoxA9 cells [1]) is on record?
Answer: phenocopied the differentiation effect of DHODH inhibition

Question: And the “effect of uridine supplementation of the media on differentiation” value (“effect … on differentiation” below) (Lys-GFP-ER-HoxA9 cells [1])?
Answer: abrogated the differentiation effect

Question: What does the source list for Cc1c(-c2ccc(-c3ccccc3F)cc2)nc2ccc(F)cc2c1C(=O)O [brequinar sodium]?
Answer: myeloid differentiation (Lys-GFP-ER-HoxA9 cells [1]): active; DHODH enzyme inhibition [2]: active

Question: Which “overall survival of patients with APL” value [3] does the source give for CC1=C(/C=C/C(C)=C/C=C/C(C)=C/C(=O)O)C(C)(C)CCC1 [ATRA, all-trans retinoic acid] here?
Answer: 75%

Question: What does the source list for O=C(O)c1cccnc1Nc1ccc(Cl)cc1 [Compound C03]?
Answer: myeloid differentiation (Lys-GFP-ER-HoxA9 cells [1]): triggered myeloid differentiation; effect of uridine supplementation of the media on differentiation (Lys-GFP-ER-HoxA9 cells [1]): abrogated the differentiation effect; DHODH enzyme inhibition [2]: inhibitors of DHODH; differentiation (upregulation of CD11b expression) (U937 cells): promoted differentiation; differentiation (upregulation of CD11b expression) (THP1 cells [4]): promoted differentiation

Question: For CN(Cc1cnc2nc(N)nc(N)c2n1)c1ccc(C(=O)N[C@@H](CCC(=O)O)C(=O)O)cc1 [methotrexate], which myeloid differentiation (Lys-GFP-ER-HoxA9 cells [1]) is on record?
Answer: cytotoxicity without differentiation

Question: Which myeloid differentiation (Lys-GFP-ER-HoxA9 cells [1]) does the source give for O=C(CCNC(=O)c1ccc(Cl)cc1)N[C@@H]1CCCc2ccccc21 [(R)-C07] here?
Answer: triggered myeloid differentiation

Question: And the “effect … on differentiation” value (Lys-GFP-ER-HoxA9 cells [1])?
Answer: abrogated the differentiation effect

Question: What about the DHODH enzyme inhibition [2] of the same compound?
Answer: inhibitors of DHODH

Question: What does the source list for Cc1c(-c2ccc(-c3ccccc3F)cc2)nc2ccc(F)cc2c1C(=O)O [brequinar, 6-fluoro-2-(2′-fluoro-[1,1′-biphenyl]-4-yl)-3-methyl-quinoline-4-carboxylic acid]?
Answer: toxicity (wild-type C57B1/6 mice [5]): weight loss and thrombocytopenia; change in DHO levels, IP versus PO administration (DHODH activity; FIG. 11): similar; time until DHO levels undetectable again (DHODH activity; single 25 mg/kg dose): ≤ 72 h; time to rebound of plasma uridine (DHODH activity; single dose 25 mg/kg): about 48 hours; increase in ED50 (Lys-GFP-ER-HoxA9 cells [1]; cells cultured in 50% FBS): ~2 fold; myeloid differentiation effect in vitro (Lys-GFP-ER-HoxA9 cells [1]; pulses that lasted fewer than 48-hours): almost no effect; protein-bound (Plasma protein binding): 98-99%; tumor growth (THP1 cells [6]; 5 mg/kg daily IP): arrested tumor growth; tumor growth (THP1 cells [6]; 15 mg/kg Q3D IP): slowed tumor growth; reduction in cellular uridine levels (THP1 cells [6]; THP1 cells isolated from treated mice vs vehicle): 90 % AUC; differentiation of explanted THP1 cells (CD11b expression) (THP1 cells [6]; tumors explanted after 10 days of treatment): marked differentiation; tolerated dose (wild-type C57B1/6 mice [7]): up to 15 mg/kg; protein O-GlcNAc modification [8]: global reduction of protein O-GlcNAc modification; kinase inhibitory activity ([9]; 100 nM): near-complete absence of kinase inhibitory activity; kinase inhibitory activity ([9]; 1 μM): near-complete absence of kinase inhibitory activity; prevention of organ rejection (organ rejection): effective in preventing organ rejection; morphology of leukemic cells isolated from treated mice ([10]; Wright-Giemsa cytospin): morphologic granulocytic differentiation; leukemia development in recipients of leukemic cells from treated donors ([10]; donors: 25 mg/kg every other day 4 doses, or day 1+4 of 7-day cycle 6 doses, both cases): took longer to develop symptoms of leukemia; half-life [11]: ~12 h; survival [12, 14]: prolongation of survival; tolerability [12, 14]: well tolerated without hematologic toxicity or weight loss; differentiation markers on leukemic cells ([12]; 25 mg/kg Q2D for four doses): upregulation of differentiation markers CD11b (Mac-1) and Gr-1 (Ly6C/G); leukemic involvement of bone marrow, spleen and peripheral blood ([12]; 25 mg/kg Q2D for four doses): dramatic decrease in the leukemic involvement of their bone marrow, spleen, and peripheral blood; side effects ([12]; 25 mg/kg Q2D for four doses): weight loss, anemia, and thrombocytopenia; time off treatment until relapse with leukemia ([12]; 25 mg/kg day 1+4, discontinued after 14 doses (day 59)): approximately 4 weeks; survival [12, 15]: even more dramatic prolongation of survival; toxicity [12, 15]: without toxicity; leukemic involvement of bone marrow, spleen and peripheral blood [12, 16]: even more dramatic decrease in the leukemic involvement of their bone marrow, spleen, and peripheral blood; side effects [12, 16]: none of the side effects; cellular uridine, UDP and UDP-glycoconjugates ([12]; HoxA9-Meis1 leukemia cells from bone marrow of treated mice): significant reduction in cellular uridine; tolerability and efficacy ([12]; administered every 3-days, mouse model of AML): both effective against AML and well-tolerated

Question: With Nc1ccn([C@@H]2O[C@H](CO)[C@@H](O)[C@@H]2O)c(=O)n1 [cytarabine] as the compound, how does the myeloid differentiation (Lys-GFP-ER-HoxA9 cells [1]) read?
Answer: cytotoxicity without differentiation

Question: Which “effect … on differentiation” value (Lys-GFP-ER-HoxA9 cells [1]) does the source give for O=C(CCNC(=O)c1ccc(OC(F)(F)F)cc1)N[C@@H]1CCCc2ccccc21 [ML390] here?
Answer: abrogated the differentiation effect

Question: And the accumulation of dihydroorotate (Lys-GFP-ER-HoxA9 cells [13])?
Answer: > 500 fold

Question: What about the “uridine and downstream metabolites” value (Lys-GFP-ER-HoxA9 cells [13]) of the same compound?
Answer: depletion of uridine and other downstream metabolites

Question: What about the DHODH enzyme inhibition [2] of the same compound?
Answer: DHODH was confirmed as the target

Question: And the solubility (Solubility)?
Answer: low

Question: And the “protein O-GlcNAc modification” value [8]?
Answer: global reduction of protein O-GlcNAc modification

Question: And the bioavailability (Bioavailability)?
Answer: low

Question: For Cc1oncc1C(=O)Nc1ccc(C(F)(F)F)cc1 [leflunomide, 5-methyl-N-[4-(trifluoromethyl)phenyl]-isoxazole-4-carboxamide], which myeloid differentiation (Lys-GFP-ER-HoxA9 cells [1]) is on record?
Answer: active

Question: What about the leukemic burden ([12]; 25 mg/kg daily) of the same compound?
Answer: did not result in a reduction in leukemic burden

Question: What about the “expression of the differentiation marker CD11b” value ([12]; 25 mg/kg daily (highest dosage)) of the same compound?
Answer: very mild increase

Question: Which myeloid differentiation (Lys-GFP-ER-HoxA9 cells [1]) does the source give for C/C(O)=C(\C#N)C(=O)Nc1ccc(C(F)(F)F)cc1 [teriflunomide, (2Z)-2-cyano-3-hydroxy-N-[4-(trifluoromethyl)phenyl]but-2-enamide] here?
Answer: active

Question: And the DHODH enzyme inhibition [2]?
Answer: active

Question: For COc1cccc2c1C(=O)c1c(O)c3c(c(O)c1C2=O)C[C@@](O)(C(C)=O)C[C@@H]3O[C@H]1C[C@H](N)[C@H](O)[C@H](C)O1 [daunorubicin], which myeloid differentiation (Lys-GFP-ER-HoxA9 cells [1]) is on record?
Answer: cytotoxicity without differentiation

Reference: patent publication US11096934B2, “Compounds and methods useful for treating or preventing hematological cancers” (THE BROAD INSTITUTE, INC., priority 2015, dated 2021)
